EC50 data for 82 molecules are collected here from PubChem BioAssay AID1241 (SRMLSC, 2008).

This experiment is described as follows: compounds inducing NF-kB luciferase expression – cell-based, SH-SY5Y, dose response (AID 1241). As to conditions: SH-SY5Y NF-kB promoter luciferase reporter, fold induction. A general note: Reporter assays use an easily measured gene product as a stand-in for the process of interest.
The EC50 is the concentration giving half of the maximal effect. On to `CC(=O)c1ccc(Nc2ccc(-c3ccccc3F)nn2)cc1`, for which the EC50 was 838 nM.

`O=C(/C=C/c1cccs1)N1CCc2ccccc21`: the concentration giving a half-maximal response (EC50) is 356 nM.

As to `O=C(Nc1cnc2ccccc2c1)c1ccco1`, the EC50 was 1380 nM. For `COc1ccc2c(c1OC)C(=O)OC2Nc1nc(-c2cc3ccccc3oc2=O)cs1` (configuration not stated), the EC50 was 2100 nM. For `COc1cccc(-c2nc3ccccc3s2)c1` the value was 10900 nM; for `COc1ccc(-n2nc3cc(C)c(N)c(Br)c3n2)cc1`, 1440 nM; for `Cc1c(C(=O)NC2=NCCS2)oc2ccccc12`, 1030 nM. As for `O=C(Nc1ccc2c(c1)OCCO2)Nc1ccc2c(c1)OCO2`, the concentration giving a half-maximal response (EC50) is 114 nM.

On to `Clc1ccc(OCc2nc(-c3ccncc3)no2)c(Cl)c1`, for which the concentration giving a half-maximal response (EC50) is 1120 nM.

For `COc1ccc(N=C(C)C2=C(O)c3ccccc3C2=O)cc1`, the EC50 is 889 nM. In the case of `N#Cc1cccc(NCC(=O)Nc2ccc3c(c2)OCCO3)c1` it was 6600 nM. For `Cc1ccc(C(=O)Nc2ncc(Cc3ccc(F)cc3)s2)o1` the value was 6160 nM; for `CCNC(=O)O/N=C(\C)c1sc(-c2ccc(Cl)cc2)nc1C`, 1630 nM; for `Cc1ccc(-c2noc(-c3ccccc3Br)n2)cc1`, 1830 nM. For `Cc1ccc(-c2nc3ccc([N+](=O)[O-])cc3[nH]2)cc1` the value was 577 nM; for `Cc1nc2ccc(-c3nc4ccccc4o3)cc2[nH]1`, 3300 nM. In the case of `c1ccc2oc(-c3csc(N4CCOCC4)n3)cc2c1`, the 50% effective concentration (EC50) was 966 nM.

As for `COc1ccc2nc(NC(=S)N(C)C)sc2c1`, the EC50 was 24800 nM.

Consider `CC(C)c1ccc(/C=C/C(=O)Nc2nncs2)cc1`, for which the EC50 was 4500 nM. Consider `CCOC(=O)c1cnc2c(-c3ccccc3)cnn2c1N`, for which the EC50 is 5180 nM.

On to `Cc1noc(/C=C/Nc2ccc(F)cc2F)c1[N+](=O)[O-]`, for which the EC50 was 2360 nM. Take `O=C(Cc1cccs1)Nc1nc2c(s1)CCCC2`: the EC50 is 20200 nM.

Regarding `CC(/C=N/NC(=O)c1cccs1)=C\c1ccccc1`, the EC50 is 2310 nM. For `CCCCn1cnc2sc(-c3ccccc3)cc2c1=O` the value was 12000 nM; for `N#C/C(=N/Nc1ccc([N+](=O)[O-])cc1)C(=N)N1CCCCC1`, 2610 nM; for `CN(C)c1ccc(NC(=O)CCCc2ccccc2)cc1`, 2460 nM.

Take `O=C(Nc1nc2ccc(F)cc2s1)c1cccs1`: the concentration giving a half-maximal response (EC50) was 4570 nM. In the case of `COC(=O)c1ccc(NC(=O)C(=O)c2cccn2C)cc1` it was 1710 nM; in that of `COc1ccc(NC(=O)N2CCc3ccccc32)cc1`, 697 nM; in that of `COc1ccccc1/C=C/C(=O)Nc1ccc2c(c1)OCCO2`, 1190 nM. In the case of `O=C(c1cnn(-c2ccc(Cl)cc2)c1)c1ccccc1O` it was 1720 nM; in that of `Cc1ccc(C(=O)C(C)OC(=O)c2ccccc2[N+](=O)[O-])cc1` (configuration not stated), 9080 nM. For `O=C1/C(=C/c2cccs2)CCc2ccccc21` the value was 4120 nM; for `Nc1nc(-c2cccnc2)nc2sc3c(c12)CCCC3`, 6840 nM; for `C/C(=N\NC(=O)c1ccc(Cl)cc1)c1cccs1`, 1400 nM. As to `c1ccc(OCCSc2nnnn2-c2ccccc2)cc1`, the EC50 is 8350 nM. Turning to `CC(=O)c1c(C)[nH]c(C(=O)Nc2ccc3c(c2)OCCO3)c1C`, the concentration giving a half-maximal response (EC50) is 5260 nM.

Turning to `O=C(Nc1ccc(N2CCOCC2)c(Cl)c1)c1cccc(F)c1`, the half-maximal effective concentration (EC50) is 8600 nM. For `Cc1ccc(-c2cc(-c3cccs3)[nH]n2)c(O)c1` the value was 13100 nM. For `C/C(=N\Nc1nc2ccccc2[nH]1)c1cccs1` the value was 2800 nM; for `O=C(/C=C/c1ccco1)Nc1ccc2c(c1)OCCO2`, 1280 nM; for `Cc1ccc(-n2c(C)cc(C(=O)CSc3nnnn3C)c2C)cc1`, 1320 nM. For `Cc1ccc(Nc2nc(-c3ccc(O)cc3O)cs2)nc1`, the EC50 is 1890 nM. In the case of `O=C(NC1CCCCCCC1)c1ccc2c(c1)OCO2` it was 11000 nM. Regarding `Cc1cccc(Nc2nc(-c3cccs3)cs2)n1`, the EC50 was 1220 nM. For `Fc1cccc(F)c1CSc1nc2ccccc2[nH]1` the value was 4340 nM. For `Cc1nc2c(ccc3nc(NC(=O)c4ccc5c(c4)OCCO5)sc32)s1` the value was 784 nM. `Cc1ccc(NC(=O)c2ccccc2O)cc1`: the EC50 is 3230 nM. In the case of `COCCNC(=O)/C(C#N)=C/c1cc(C)n(-c2ccc(C)cc2)c1C` it was 5600 nM; in that of `Cc1ccc(-n2nnc(-c3cccnc3Cl)n2)cc1`, 4750 nM; in that of `Fc1cccc(C2NN=C(c3ccccc3)S2)c1` (configuration not stated), 9650 nM. In the case of `CN=c1scc(C)n1/N=C/c1ccc(O)cc1` it was 15600 nM; in that of `C(=N\Nc1nc(-c2ccccc2)cs1)/c1ccco1`, 1700 nM. On to `Cc1ccc(N/N=C(\C#N)C(=N)N2CCCCCC2)cc1`, for which the 50% effective concentration (EC50) was 1850 nM.

As to `OCc1cn(-c2ccccc2)nc1-c1cc2ccccc2o1`, the half-maximal effective concentration (EC50) is 6680 nM. On to `O=C(Nc1nc(-c2ccc3c(c2)OCCO3)cs1)C1CCCC1`, for which the half-maximal effective concentration (EC50) is 13700 nM. As for `CCOC(=O)CSc1nc2cc(C)ccc2cc1C#N`, the half-maximal effective concentration (EC50) was 1100 nM. For `O=C(Nc1ccc(Cl)cc1)C1=Cc2ccccc2OC1` the value was 2230 nM; for `Cc1ccc(C(=O)COC(=O)c2cccs2)cc1`, 2450 nM; for `COc1ccc(-c2cc(=O)c3cc(OC)ccc3o2)cc1`, 3920 nM. In the case of `O=[N+]([O-])c1ccc(N/N=C/c2ccc[nH]2)cc1` it was 3630 nM; in that of `CC(=O)c1cnc2cc(-c3ccc(C)cc3)nn2c1C`, 3260 nM. For `Cc1cccc(Nc2nc3ccccc3s2)c1C`, the EC50 is 4270 nM.

For `COC(=O)c1sc(NC(=O)c2cc3c(s2)CCCC3)nc1C`, the EC50 was 13600 nM.

On to `Cc1ccc2nc(/C=C/c3cccc(F)c3)ccc2c1`, for which the EC50 was 3070 nM.

Take `CN(C)C(=O)Oc1ccc(-c2cn3cc(Cl)ccc3n2)cc1`: the EC50 is 3220 nM.

`O=C1CC(c2ccco2)CC2=C1C1c3ccccc3C(=O)N1c1ccccc1N2` (configuration not stated): the EC50 was 3070 nM. For `N#C/C(=C\c1ccc(OCc2ccc(C(=O)O)cc2)cc1)C(=O)N1CCOCC1` the value was 12100 nM; for `Cc1nc(-c2ccc(NC(=O)c3ccccc3)cc2)cs1`, 761 nM. For `Cc1ccc(NC2=Nc3ccccc3CS2)cc1` the value was 1340 nM. For `Cc1ccc(S(=O)(=O)/N=C(/NC(=S)Nc2ccccc2)c2ccccc2)cc1` the value was 23500 nM. Regarding `Cc1ccc(Cc2cnc(NC(=O)c3ccco3)s2)cc1`, the EC50 was 1340 nM. Take `Oc1cccc(/C=N/Nc2cccc3cccnc23)c1`: the EC50 is 1350 nM.

As for `CC(C)(C)c1ccc2c(c1)C(=O)c1ccccc1C2=O`, the EC50 was 3190 nM. In the case of `O=C(COc1ccc2ccccc2c1)Nc1nccs1` it was 776 nM. For `CCOC(=O)Cc1ccc2sc(-c3ccccc3)nc2c1` the value was 6450 nM; for `O=c1oc2ccccc2cc1-c1nnc(NCc2ccco2)s1`, 1330 nM.

For the molecule `Cc1ccc(/C=N/Nc2nnc(Cl)c3ccccc23)cc1`, the half-maximal effective concentration (EC50) was 1530 nM. For `c1ccc2c(c1)nnn1c3ccccc3nc21` the value was 346 nM. In the case of `Cc1cc(/C=C(\C#N)C(=O)Nc2ccccc2F)c(C)[nH]1` it was 28700 nM; in that of `Cn1c(C(=O)Nc2ccc3c(c2)OCCO3)cc2sccc21`, 1170 nM. In the case of `Cc1cccc(-c2cc3c(nn2)-c2ccccc2C3=O)c1`, the EC50 was 2600 nM.
